This assay has as its system Plasmodium berghei. Briefly: Luciferase/luciferin-expressing antifolate-resistant parasites were used to infect a culture of HepG2 cells that were pre-incubated with compounds. Infected hepatocytes emit light due to the luciferase reaction. Assay results are presented as the percent inhibition of light emission compared to control. […]. The format is functional. The settings on record: sporozoite; for IC90: read-out: LUCIFERASE INFECTION ASSAY - IC90.

[1] abbreviates: read-out: LUCIFERASE INFECTION ASSAY - IC50.

The structures appear in SMILES notation.

Take `CCCCNC(=O)c1c(NC(=O)c2cccc(C)c2)nc2ccccn12`: the IC90 was determined as 6.37 µM. Moreover, the IC50 (HEPG2TOX_HILL_SLOPE 8.37, HEPG2TOX_R_SQUARED 0.0961, PBLUC_HILL_SLOPE 7.21, PBLUC_R_SQUARED 0.187, read-out: LUCIFERASE INFECTION ASSAY - IC50) turned out to be 4.7 µM.

`Cc1ccn2cc(C(=O)Nc3nc(C(C)C)cs3)nc2c1`: the concentration for an effect of 90% (IC90) is over 10 µM. For the same compound, the IC50 (PBLUC_HILL_SLOPE 42, PBLUC_R_SQUARED 0.63, read-out: LUCIFERASE INFECTION ASSAY - IC50) came to 9.53 µM.

`CC(C)OC(=O)c1c(NC(=O)CSc2nnc(N)[nH]2)sc2c1CCCC2`: the 90% effect concentration (IC90) was over 10 µM. Moreover, the 50% inhibitory concentration (IC50) (PBLUC_HILL_SLOPE 4.93, PBLUC_R_SQUARED 0.291, read-out: LUCIFERASE INFECTION ASSAY - IC50) was found to be 7.71 µM.

For `CS(=O)(=O)c1sc(NC(=O)Nc2ccc(Cl)cc2)c2c1C=CCC2`, the IC90 is over 8.62 µM. Moreover, under setting [1], the IC50 is over 8.62 µM.

Turning to `CC(C)c1ccc(NC(=O)c2csc(Cc3c(Cl)cccc3Cl)n2)cc1`, the 90% effect concentration (IC90) was determined as 8.08 µM. Further, the IC50 (HEPG2TOX_HILL_SLOPE 1.62, HEPG2TOX_R_SQUARED 0.849, PBLUC_HILL_SLOPE 1.9, PBLUC_R_SQUARED 0.639, read-out: LUCIFERASE INFECTION ASSAY - IC50) was determined as 2.55 µM.

Turning to `CCOC(=O)c1nn(CCc2ccccc2)c2c1CN(C(=O)c1cc(C)n[nH]1)CC2`, the IC90 was over 8.1 µM. The half-maximal inhibitory concentration (IC50) (PBLUC_HILL_SLOPE 3.03, PBLUC_R_SQUARED 0.7, read-out: LUCIFERASE INFECTION ASSAY - IC50) was found to be 4.26 µM.

In the case of `CCOC(=O)c1c(C)[nH]c(C(=O)COC(=O)c2[nH]nc3ccccc23)c1C`, the concentration for an effect of 90% (IC90) was over 10 µM. Also, the IC50 (HEPG2TOX_HILL_SLOPE 3.07, HEPG2TOX_R_SQUARED 0.979, PBLUC_HILL_SLOPE 5.58, PBLUC_R_SQUARED 0.622, read-out: LUCIFERASE INFECTION ASSAY - IC50) came to 8.71 µM.

Consider `Cc1ccsc1C(=O)Nc1nc2cc3c(cc2s1)OCCO3`, for which the IC90 is over 10 µM. Also, the half-maximal inhibitory concentration (IC50) (HEPG2TOX_HILL_SLOPE 1.74, HEPG2TOX_R_SQUARED 0.923, PBLUC_HILL_SLOPE 0.323, PBLUC_R_SQUARED 0.422, read-out: LUCIFERASE INFECTION ASSAY - IC50) was determined as 0.658 µM.

With `CC(C)(C)Nc1ncnc2sc(-c3ccccc3)cc12`, the IC90 was over 10 µM. Moreover, for the setting “PBLUC_HILL_SLOPE 1.75, PBLUC_R_SQUARED 0.697, read-out: LUCIFERASE INFECTION ASSAY - IC50”, the IC50 amounted to 4.97 µM.

`O=C(Nc1ccc(F)cc1F)Nc1cc(Cl)sc1Cl`: the IC90 was over 10.2 µM. Besides, under “PBLUC_HILL_SLOPE 1.97, PBLUC_R_SQUARED 0.405, read-out: LUCIFERASE INFECTION ASSAY - IC50”, the half-maximal inhibitory concentration (IC50) amounted to 6.86 µM.

As for `O=S(=O)(Nc1csc(C(F)(F)F)c1-c1ccccc1)c1cc(Cl)c(Cl)s1`, the IC90 is 6.91 µM. Besides, the IC50 (FFLUC_HILL_SLOPE 1.1, FFLUC_R_SQUARED 0.492, HEPG2TOX_HILL_SLOPE 2.51, HEPG2TOX_R_SQUARED 0.937, PBLUC_HILL_SLOPE 4.37, PBLUC_R_SQUARED 0.518, read-out: LUCIFERASE INFECTION ASSAY - IC50) stood at 4.18 µM.

Consider `CC(=O)NC(C)CCc1ccc(C(=O)Cn2ncc(Cl)c(Cl)c2=O)cc1` (stereo not given), for which the IC90 is 9.36 µM. The IC50 (HEPG2TOX_HILL_SLOPE 9.09, HEPG2TOX_R_SQUARED 0.148, PBLUC_HILL_SLOPE 4.21, PBLUC_R_SQUARED 0.695, read-out: LUCIFERASE INFECTION ASSAY - IC50) turned out to be 5.55 µM.

For `COc1ccc(C(CNC(=O)c2ccccc2-c2ncc(-c3ccccc3)o2)N(C)C)cc1` (stereo not given), the 90% effect concentration (IC90) is over 10 µM. In addition, under “PBLUC_HILL_SLOPE 2.7, PBLUC_R_SQUARED 0.455, read-out: LUCIFERASE INFECTION ASSAY - IC50”, the half-inhibitory concentration (IC50) is 5.19 µM.

Consider `CCN(C(S)=Nc1cccnc1)c1cccc2ccccc12`, for which the IC90 was over 10 µM. In addition, the IC50 (HEPG2TOX_HILL_SLOPE 1.34, HEPG2TOX_R_SQUARED 0.711, PBLUC_HILL_SLOPE 4.21, PBLUC_R_SQUARED 0.184, read-out: LUCIFERASE INFECTION ASSAY - IC50) came to 7.6 µM.

As to `COc1ccc(NC(=O)C2Cc3c(-c4cccc(C(C)=O)c4)ccnc3O2)cc1OC` (stereo not given), the IC90 was over 7.89 µM. Besides, the IC50 (FFLUC_HILL_SLOPE 0.226, FFLUC_R_SQUARED 0.216, HEPG2TOX_HILL_SLOPE 3.1, HEPG2TOX_R_SQUARED 0.695, PBLUC_HILL_SLOPE 3.79, PBLUC_R_SQUARED 0.351, read-out: LUCIFERASE INFECTION ASSAY - IC50) was found to be 4.93 µM.

For `COc1ccc(NC(C)=O)cc1Nc1ncnc2scc(-c3ccccc3)c12`, the 90% effect concentration (IC90) was over 10 µM. Further, the IC50 (PBLUC_HILL_SLOPE 3.37, PBLUC_R_SQUARED 0.17, read-out: LUCIFERASE INFECTION ASSAY - IC50) turned out to be 9.19 µM.

With `O=C(Nc1ccn(-c2ccccc2)n1)c1cc(-c2ccccc2)nc2ccccc12`, the IC90 was over 10 µM. Moreover, the concentration for half-maximal inhibition (IC50) (PBLUC_HILL_SLOPE 22.3, 9.62, PBLUC_R_SQUARED 0.228, 0.621, read-out: LUCIFERASE INFECTION ASSAY - IC50) turned out to be 9.46 µM.

As to `O=C(CSCCc1nc(-c2ccc(Cl)cc2)cs1)N/N=C/c1ccccc1`, the concentration for an effect of 90% (IC90) was 3.43 µM. Also, the IC50 (PBLUC_HILL_SLOPE 13.2, PBLUC_R_SQUARED 0.406, read-out: LUCIFERASE INFECTION ASSAY - IC50) turned out to be 2.9 µM.

Turning to `COc1ccccc1Oc1ccc(C(F)(F)F)cc1NC(=O)c1sc2ccccc2c1Cl`, the IC90 is over 6.91 µM. Further, the IC50 under setting [1] was over 6.91 µM.

As to `COC(=O)c1c(-c2c(Cl)cccc2Cl)noc1CC=Nc1ccc(C(=O)O)cc1`, the concentration for an effect of 90% (IC90) was over 7.62 µM. Also, the IC50 (HEPG2TOX_HILL_SLOPE 0.693, HEPG2TOX_R_SQUARED 0.602, read-out: LUCIFERASE INFECTION ASSAY - IC50) is over 7.62 µM.

Take `COc1ccccc1Nc1ncccc1C(=O)Nc1nc2ccccc2[nH]1`: the IC90 is 3.78 µM. The half-inhibitory concentration (IC50) (HEPG2TOX_HILL_SLOPE 3.87, HEPG2TOX_R_SQUARED 0.988, PBLUC_HILL_SLOPE 17.6, PBLUC_R_SQUARED 0.638, read-out: LUCIFERASE INFECTION ASSAY - IC50) worked out at 3.34 µM.

As to `COc1cc(-c2cnc3cnc(-c4ccc(C(=O)NCCN(C)C)cc4)cn23)ccc1O`, the IC90 was over 7.65 µM. Further, the IC50 under setting [1] is over 7.65 µM.

As to `COc1ccccc1-c1noc(COC(=O)c2c[nH]nc2-c2ccccc2)n1`, the IC90 was over 10 µM. Also, the half-maximal inhibitory concentration (IC50) under setting [1] was over 10 µM.

For `CC(=O)c1ccc(NC(=O)N2[C@@H]3CC[C@@H](C3)[C@H]2c2nc3cccc(OCc4ccccc4)c3[nH]2)cc1`, the concentration for an effect of 90% (IC90) is over 10 µM. For the same compound, the IC50 (FFLUC_HILL_SLOPE 3.04, FFLUC_R_SQUARED 0.885, read-out: LUCIFERASE INFECTION ASSAY - IC50) was over 10 µM.

Regarding `CCOC(=O)N1CCN(C2c3ccccc3-c3ccccc32)CC1`, the IC90 was over 10.2 µM. Further, under setting [1], the IC50 was 8.79 µM.

On to `CCCCNC(=O)c1c(NC(=O)c2cccc(Cl)c2Cl)nc2ccccn12`, for which the concentration for an effect of 90% (IC90) is over 8.14 µM. The IC50 (PBLUC_HILL_SLOPE 8.82, PBLUC_R_SQUARED 0.193, read-out: LUCIFERASE INFECTION ASSAY - IC50) stood at 6.71 µM.

As to `Cc1ccc(N2C(=O)c3ccccc3C(C=NNc3ccc(S(=O)(=O)N4CCCC4)cc3[N+](=O)[O-])C2=O)cc1` (stereo not given), the IC90 is over 10 µM. In addition, for the setting “FFLUC_HILL_SLOPE 3.06, FFLUC_R_SQUARED 0.613, HEPG2TOX_HILL_SLOPE 13, HEPG2TOX_R_SQUARED 0.977, read-out: LUCIFERASE INFECTION ASSAY - IC50”, the IC50 was over 10 µM.

Consider `O=C1c2ccccc2O[C@@H](c2ccccc2)[C@H]1O`, for which the IC90 is over 13.7 µM. For the same compound, the IC50 under setting [1] was over 13.7 µM.

As to `Cn1c(-c2ccsc2)cc2c(Nc3ccc(Oc4ccccc4)cc3)nccc21`, the IC90 worked out at 3.44 µM. The IC50 (HEPG2TOX_HILL_SLOPE 11.7, HEPG2TOX_R_SQUARED 0.553, PBLUC_HILL_SLOPE 10.6, PBLUC_R_SQUARED 0.752, read-out: LUCIFERASE INFECTION ASSAY - IC50) worked out at 2.8 µM.

As for `O=[N+]([O-])c1ccc(Nc2nc3ccc(Cl)cc3o2)cc1`, the 90% effect concentration (IC90) is over 10 µM. In addition, the 50% inhibitory concentration (IC50) under setting [1] was over 10 µM.

`O=C(/C(Br)=C/c1ccc([N+](=O)[O-])cc1)c1ccccc1`: the 90% effect concentration (IC90) is over 10 µM. In addition, where the note is “HEPG2TOX_HILL_SLOPE 17, HEPG2TOX_R_SQUARED 0.837, PBLUC_HILL_SLOPE 13.5, PBLUC_R_SQUARED 0.0643, read-out: LUCIFERASE INFECTION ASSAY - IC50”, the IC50 was determined as 9.16 µM.

On to `Cc1cc(=O)nc(N/N=C2/CCc3ccccc3C2)[nH]1`, for which the IC90 was over 10 µM. For the same compound, the IC50 under setting [1] amounted to 5.6 µM.

As for `O=C1COc2ccc(-c3cs/c(=N\c4ccc(OC(F)F)cc4)n3Cc3ccco3)cc2N1`, the IC90 was over 10 µM. The half-maximal inhibitory concentration (IC50) under setting [1] is over 10 µM.

Turning to `CC(C)c1ccc2c(c1)/C(=N/NC(=S)NCCc1ccccc1)C(=O)N2`, the IC90 turned out to be 8.12 µM. The concentration for half-maximal inhibition (IC50) (FFLUC_HILL_SLOPE 19.2, FFLUC_R_SQUARED 0.695, HEPG2TOX_HILL_SLOPE 7.84, HEPG2TOX_R_SQUARED 0.253, PBLUC_HILL_SLOPE 4.58, PBLUC_R_SQUARED 0.343, read-out: LUCIFERASE INFECTION ASSAY - IC50) is 5.02 µM.

With `CC(C)(C)c1nnc(Sc2ncc([N+](=O)[O-])s2)[nH]1`, the IC90 worked out at 11.3 µM. Further, the IC50 (FFLUC_HILL_SLOPE 12.8, FFLUC_R_SQUARED 0.253, HEPG2TOX_HILL_SLOPE 7.13, HEPG2TOX_R_SQUARED 0.706, PBLUC_HILL_SLOPE 14.6, PBLUC_R_SQUARED 0.134, read-out: LUCIFERASE INFECTION ASSAY - IC50) came out at 9.74 µM.

Source of the values: ChEMBL document CHEMBL4483862, “Open-source discovery of chemical leads for next-generation chemoprotective antimalarials” (2018).
